Source: ChEMBL document CHEMBL1154058, “Identification of novel serotonin 2C receptor ligands by sequential virtual screening” (Bioorg Med Chem, 2009)
pIC50, pKi: −log10 of the molar value.

Each molecule was assayed against T1, 5-hydroxytryptamine receptor 2C (Homo sapiens, UniProt P28335) (assay: Displacement of [3H]Mesulergine from human recombinant serotonin 5-HT2C expressed in CHO-K1 cells).
T1 sequence (P28335 whole entry): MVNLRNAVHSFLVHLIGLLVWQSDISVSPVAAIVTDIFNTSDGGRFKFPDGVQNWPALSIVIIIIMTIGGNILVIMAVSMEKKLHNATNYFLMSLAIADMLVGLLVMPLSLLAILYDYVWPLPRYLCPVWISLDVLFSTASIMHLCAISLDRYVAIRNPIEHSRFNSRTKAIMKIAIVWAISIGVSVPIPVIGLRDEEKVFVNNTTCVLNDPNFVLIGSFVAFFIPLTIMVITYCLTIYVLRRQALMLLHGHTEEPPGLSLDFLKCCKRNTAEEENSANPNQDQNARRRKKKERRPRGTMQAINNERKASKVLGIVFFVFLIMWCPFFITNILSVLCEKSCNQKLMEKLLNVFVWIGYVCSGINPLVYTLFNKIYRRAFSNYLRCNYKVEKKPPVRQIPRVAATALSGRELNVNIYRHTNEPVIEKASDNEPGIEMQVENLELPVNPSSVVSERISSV
Type: cell-based

Row | pIC50 | Compound
1 | 6.65 | CN(C)CCNC(=O)c1ccc(-n2ccc3ccccc32)s1
2 | 5.69 | CCOC(=O)c1noc2ncnc(N3CCN(C)CC3)c12
3 | < 5.00 | Cn1ncc2c(Nc3ccc(F)cc3)nc(NCCN3CCOCC3)nc21
4 | < 5.00 | Cn1ncc2c(Nc3ccc(F)cc3)nc(NCCCO)nc21
5 | < 5.00 | Cc1cccc(C(=O)Nc2nn3c(-c4ccccc4C)nnc3s2)c1
6 | < 5.00 | CCNc1nc(Nc2ccccc2)c2cnn(C)c2n1
7 | < 5.00 | COCCCNc1nc(Nc2ccc(F)cc2)c2cnn(C)c2n1
8 | 5.28 | CC(=O)Nc1c(C(=O)N2CCN(C)CC2)oc2ccccc12
9 | < 5.00 | CCCNc1nc(Nc2ccccc2)c2cnn(C)c2n1
10 | 5.05 | Cc1ccc2onc(CNC(=O)N3CCN(C)CC3)c2c1
11 | 5.29 | CCc1nnc2c(NC)nc3ccccc3n12
12 | 5.56 | CC(=O)N(CCN(C)C)c1nc2cc3c(cc2s1)OCO3
13 | < 5.00 | COc1ccc2c3c([nH]c2c1)[C@@](C)(C(=O)O)NCC3
14 | < 5.00 | CCNc1nc(Nc2ccc(F)cc2)c2cnn(C)c2n1
15 | 5.38 | CCCCN(C)CCNc1nc(C)nc2oc(C)c(C(=O)OCC)c12
16 | < 5.00 | COCCNc1nc(Nc2ccc(F)cc2)c2cnn(C)c2n1
17 | < 5.00 | Cn1ncc2c(Nc3ccc(F)cc3)nc(NC3CCCC3)nc21
18 | < 5.00 | C=CCNc1nc(Nc2ccc(F)cc2)c2cnn(C)c2n1
19 | 6.37 | CN(C)CCNC(=O)c1cc2ccccc2[nH]1
20 | 6.23 | COC(=O)c1cnn2c(O)nc(C3CCNCC3)nc12
21 | 5.25 | CCN1Cc2cccc(CNc3ccc(C)c(F)c3)c2C1
22 | 5.35 | CCOC(=O)C1=CCc2nc(C)nc(NCCN(C)C)c21
23 | 5.70 | CC(=O)N(CCN(C)C)c1nc2c(F)cccc2s1
24 | 5.04 | CCC(=O)Nc1nn2c(-c3cccc(C)c3)nnc2s1
25 | < 5.00 | CCCNc1nc2ccc(C)cc2n2nnnc12

Row | Compound | pIC50
26 | CCOC(=O)c1c(C)oc2ncnc(NCCN3CCOCC3)c12 | < 5.00
27 | Cc1noc(C(=O)NCCN2CCOCC2)c1Cl | < 5.00
28 | CN(C)CCNC(=O)c1nc(-c2cccnc2)no1 | < 5.00
29 | Cc1cccc(CN2CCNC(=O)C2CC(=O)O)c1 (configuration not stated) | < 5.00
30 | CC1CCCCN1CCNC(=O)c1noc2c1CCc1sccc1-2 (configuration not stated) | < 5.00
31 | Cc1ccc(C2=NC3(CCNCC3)NC2=O)cc1C | < 5.00
32 | CCc1nnc2c(NCCC3=CCCCC3)nc3ccccc3n12 | < 5.00
33 | COc1cc2c(cc1OC)C1CCCN1C(C)(C)C2 (configuration not stated) | < 5.00
34 | CCN(CC)CCn1c(NCc2ccncc2)nc2ccccc21 | < 5.00
35 | Cc1nnc(SCc2cc(=O)n3nc(C4CC4)sc3n2)[nH]1 | < 5.00
36 | CN1CCN(CCNC(=O)c2cc3ccc4cccnc4c3[nH]2)CC1 | < 5.00
37 | Cc1ccc(CCNc2nc3ccc(C)cc3n3nnnc23)cc1 | < 5.00
38 | CCn1ncc(C2=NOC(C(=O)NCCN3CCOCC3)C2)c1C (configuration not stated) | < 5.00
39 | Cn1c(=O)n(C)c2cc(CNCCN3CCOCC3)ccc21 | < 5.00
40 | Cc1ccc(NC(=O)N2CCN3CCCCC3C2)cc1C (configuration not stated) | < 5.00
41 | Cc1noc2ncnc(NCCN3CCOCC3)c12 | < 5.00
42 | Cc1ccccc1NC(=O)N1CCN2CCCCC2C1 (configuration not stated) | < 5.00
43 | CCc1ccccc1NC(=O)CC1NCCNC1=O (configuration not stated) | < 5.00
44 | Cc1cc(C(=O)NCCN2CCOCC2)on1 | < 5.00

The molecules below were run against T1, 5-hydroxytryptamine receptor 2C (assay: Binding affinity to 5-HT2C receptor).

Row | Compound | pKi
45 | C[C@@H]1CN(c2ccc(C(F)(F)F)c3ccoc23)CCN1 | 8.62
46 | C[C@@H](N)Cn1ccc2cc(F)c(Cl)cc21 | 9.00
47 | O=C1Nc2cc(Cl)c(Cl)cc2N2CCNC[C@H]12 | 8.48
48 | Fc1cccc(F)c1-c1cc2c3c(c1)[C@H]1CNCC[C@H]1N3CCCS2 | 8.28
49 | C[C@@H]1CNC[C@H]2Cc3ccc(COCC4CC4)nc3N21 | 8.40
50 | CCc1cc2c(ccc3cnn(C[C@@H](C)N)c32)o1 | 9.05
51 | Clc1cccc(COc2cncc(N3CCNCC3)n2)c1 | 9.00
52 | Clc1ccc(Cl)c(-c2ccnc(N3C[C@@H]4CCN[C@@H]4C3)n2)c1 | < 4.70
